{"source": "patent US10174030B2", "about": "(priority 2014, dated 2019)", "biological_target": "LSD1 (Homo sapiens (Human), UniProt O60341)", "assay": "biochemical", "description": "After stopping the reactions plates were incubated for 30 minutes and read on a PHERAstar FS plate reader (BMG Labtech).", "data": [{"smiles": "COc1ccc(CC2(CN[C@@H]3C[C@H]3c3ccccc3)CCN(CC3(C(=O)O)CC3)CC2)cn1", "note": "[Example 69, 1-{[4-[(6-methoxypyridin-3-yl)methyl]-4-({[(1R,2S)-2-phenylcyclopropyl]amino}methyl)piperidin-1-yl]methyl}cyclopropanecarboxylic acid]", "values": [{"measurement": "IC50", "result": "< 100", "unit": "nM"}]}]}
